Reference: patent US11661453B2 (Tesaro, Inc., priority 2017, dated 2023)

How the values were obtained:
[1] = system: non-small-cell lung cancer, melanoma, and renal-cell cancer; settings: Phase I clinical trial; cited from earlier work
[2] = system: cancer cell lines that have been silenced for BRCA-1 or BRCA-2, or carry BRCA-1 or BRCA-2 mutations; settings: cited from earlier work
[3] = system: TP53 null sarcoma (SA9003); assay: Tumor growth inhibition, TP53 null sarcoma model; assay type: in vivo, mouse; settings: niraparib orally once daily, antibody intraperitoneally twice weekly
From the text: (§1) A panel of 14 syngeneic or humanized xenograft models representing BRCA-proficient (wild-type) and BRCA-deficient (mutant) cancers derived from breast, lung, ovary, skin, sarcoma, bladder and colon tumors was established. The panel included the following genetically engineered mouse tumor models: 1) KrasG12D and PTEN null bladder (BL6078), 2) TP53 null sarcoma (SA9003), 3) MMTV-LPA1 breast (LPA-T22), 4) BRCA1 mutant breast (MDA-MB-436; also referred to as MM-436), 5) APC^Min heterozygous mutant skin (SK6005), and 6) BRCA1−/−, TP53−/−, KrasG12D ovarian (BRKras) models. While the bladder syngeneic model was BRCA1 wild-type, the sarcoma model harbored BRCA1 A122E and S123X heterozygous mutations. Specifically, mice were administered treatments after tumors reached 50-150 mm^3. […] The suboptimal dose administered for specific tumor models was as follows: 35 mg/kg daily for 5 consecutive days per week (QD×5/week) for the BR1126 tumor model, 35 mg/kg (QD×5/week) for the MDA-MB-436 tumor model, 30 mg/kg for the BRKras tumor model, and 25 mg/kg daily for the SK6005 tumor model. The anti-PD-1 antibody (RMP1-14/2C4) or the anti-PD-L1 antibody (10F.9G2) was administered twice weekly intraperitoneally at 10 mg/kg dose unless otherwise noted. […] Tumor growth was monitored twice per week.

[4] = system: MMTV-LPA1 breast (LPA-T22); assay: Tumor growth inhibition, syngeneic MMTV-LPA1 breast model; assay type: in vivo, mouse; settings: niraparib orally once daily, antibody intraperitoneally twice weekly
From the text: as §1

PARP activity = PARP activity stimulated by DNA damage caused by hydrogen peroxide, various cell lines, cited from earlier work
DLD1 BRCA2−/− cells = settings: 300 nM for 24 or 48 hours
From the text: (§2) The cells were subsequently analyzed for expression of Stimulator of Interferon Genes (STING) pathway proteins via Western blotting.

MDA-MB-436 cells = system: MDA-MB-436 cells
From the text: as §2

[5] = system: KrasG12D and PTEN null bladder (BL6078); assay: Tumor growth inhibition, Kras G12D and PTEN null bladder model; settings: mouse, in vivo
From the text: as §1

[6] = system: selected Ewing's sarcoma, ALL, NSCLC and SCLC cell lines, tumor cell lines carrying homozygous inactivation of the ATM gene; settings: cited from earlier work
normal human cells = settings: cited from earlier work
[7] = system: MDA-MB-436, CAPAN-1, GRANTA-519, OVCAR3, HT29, DLD-1, patient derived Ewing's sarcoma and TNBC xenograft models; settings: xenograft models in mice; cited from earlier work

In the case of “nivolumab: anti-PD-1 monoclonal antibody (Human IgG4)”, the clinical response [1] is listed as “complete or partial responses”.
In the case of `NC(=O)c1cccc2cn(-c3ccc([C@@H]4CCCNC4)cc3)nc12` [Niraparib, (3 S)-3-[4-{7-(aminocarbonyl)-2H-indazol-2-yl}phenyl]piperidine], the “consequence on cell cycle” value ([2]; BRCA-defective cells) is listed as “cell cycle arrest in G2/M followed by apoptosis”, the anti-proliferative activity ([2]; compared to wild type counterparts) is listed as “selective anti-proliferative activity” and the “tumor growth inhibition (TGI)” value [3] is listed as 1%. The “tumor growth inhibition (TGI)” value [4] was 45%, the IC50 (PARP activity; read-out: IC50 of PARP activity in cell lines) was ~4 nM and the IC90 (PARP activity; read-out: inhibitory concentration at 90% of control (IC90) of PARP activity in cell lines) was ~50 nM. For the same compound, the “mRNA expression of type-I interferon (IFNB1 or IFNA1)” value (DLD1 BRCA2−/− cells) was “detected”, the “mRNA expression of type-I interferon (IFNB1)” value (MDA-MB-436 cells; 300 nM for 24 or 48 hours) was “detected” and the “expression of STING pathway proteins (p-STING, STING, p-TBK1, TBK1, p-NF-κB p65, NF-κB p65)” value (MDA-MB-436 cells; 1 μM for 48 hours, Western blotting) was “expression of STING pathway proteins”. For the same compound, the response to monotherapy [5] was “neither responsive”, the cytotoxicity [6] was “selectively cytotoxic” and the “activity on normal human cells” value (normal human cells) was “weak activity”. The “antitumor activity in vivo” value [7] was “strong antitumor activity”.
